Results published in article PMC5485989, “Role of Free Radicals and Biotransformation in Trichloronitrobenzene-Induced Nephrotoxicity In Vitro” (International Journal of Molecular Sciences, 2017).
Marks after values point to notes of the source that are not given here.

What was measured:
[1] = system: isolated renal cortical cells (IRCC); assay: Effect of antioxidant or biotransformation inhibitor pretreatment on TCNB cytotoxicity, LDH release in IRCC; conditions: for Effect of pretreatment on 3,4,5-TCNB cytotoxicity: 0.5 mM 3,4,5-TCNB, 30 min exposure; for Effect of pretreatment on 3,4,5-TCNB cytotoxicity / Effect of pretreatment on 2,3,4-TCNB cytotoxicity / Effect of pretreatment on 2,4,5-TCNB cytotoxicity / Effect of pretreatment on 2,4,6-TCNB cytotoxicity: IRCC; for Effect of pretreatment on 2,3,4-TCNB cytotoxicity: 1.0 mM 2,3,4-TCNB, 60 min exposure; for Effect of pretreatment on 2,4,5-TCNB cytotoxicity: 1.0 mM 2,4,5-TCNB; for Effect of pretreatment on 2,4,5-TCNB cytotoxicity / Effect of pretreatment on 2,4,6-TCNB cytotoxicity: 90 min exposure; for Effect of pretreatment on 2,4,6-TCNB cytotoxicity: 1.0 mM 2,4,6-TCNB; for % of lactate dehydrogenase release, PreTx: pretreatment compound alone, no TCNB; for % of lactate dehydrogenase release, PreTx / % of lactate dehydrogenase release, PreTx + TCNB: mean ± S.E., n = 4
Protocol: Untreated rats were anesthetized with pentobarbital (75 mg/kg, i.p.) and isolated renal cortical cells (IRCC) were obtained by using the collagenase perfusion method. Initial cell viability was determined by measuring trypan blue (2% w/v) exclusion and lactate dehydrogenase (LDH) release. […] IRCC were then exposed to various concentrations of a TCNB (0, 0.5, or 1.0 mM) for 15, 30, 60, 90, or 120 min. Following the incubation period, flasks were removed and placed on ice. Samples (0.5 mL) were taken for LDH release assays. Briefly, the samples were centrifuged (3000× g, 3 min), the was supernatant decanted and saved, and the pellet was disrupted with 1 mL of 10% Triton X-100 solution to release cellular LDH activity. LDH activity was then determined in each fraction (supernatant and pellet) as previously described using a kinetic assay based on the amount of NADH produced from NAD [57]. The LDH released was expressed as % of total (supernatant plus pellet).
Concentrations used in these experiments were 0.5 mM (3,4,5-TCNB) or 1.0 mM (2,3,4-, 2,4,5- and 2,4,6-TCNB). Incubation times with a TCNB added were 30 min (3,4,5-TCNB), 60 min (2,3,4-TCNB), or 90 min (2,4,5- and 2,4,6-TCNB). The pretreatment times and concentrations for all of the pretreatments are shown below in Table 5.

[2] = system: renal cortical slices; conditions: cited from earlier work
[3] = system: isolated renal cortical cells (IRCC); assay: Time and concentration cytotoxicity study, LDH release in IRCC; format: cell-based, male Fischer 344 rats; conditions: for Cytotoxicity (LDH release), time and concentration response: 0.5 or 1.0 mM, 15-120 min, significant difference from DMSO control, p < 0.05
Protocol: To determine the comparative nephrotoxic potential of the four TCNBs in IRCC, a time and concentration response study was performed starting at 15 min and 0.5 or 1.0 mM and adjusting the times tested based on the results (Figure 2).

[4] = Table 1 experiments, 60 min incubation
[5] = Table 2 experiments, 90 min incubation
[6] = pretreatment compound followed by 1.0 mM 2,3,4-TCNB, 60 min
[7] = pretreatment compound followed by 1.0 mM 2,4,5-TCNB, 90 min
[8] = pretreatment compound followed by 1.0 mM 2,4,6-TCNB, 90 min
[9] = Table 3 experiments, 90 min incubation

| Structure (SMILES) | Effect of pretreatment on 3,4,5-TCNB cytotoxicity [1] | Effect of pretreatment on 2,3,4-TCNB cytotoxicity [1] | Effect of pretreatment on 2,4,5-TCNB cytotoxicity [1] | Effect of pretreatment on 2,4,6-TCNB cytotoxicity [1] | % of lactate dehydrogenase release, PreTx [1, 4] | % of lactate dehydrogenase release, PreTx [1, 5] | % of lactate dehydrogenase release, PreTx + TCNB [1, 6] | % of lactate dehydrogenase release, PreTx + TCNB [1, 7] | % of lactate dehydrogenase release, PreTx + TCNB [1, 8] | % of lactate dehydrogenase release, PreTx [1, 9] | Lowest concentration reducing pyruvate-stimulated gluconeogenesis and increasing LDH release [2] | Cytotoxicity (LDH release), time and concentration response [3] | Concentration at which cytotoxicity was evident ([3]; as early as 30 min) |
| --- | --- | --- | --- | --- | --- | --- | --- | --- | --- | --- | --- | --- | --- |
| O=C1O[C@H]([C@@H](O)CO)C(O)=C1O [Ascorbate] | attenuation of 3,4,5-TCNB cytotoxicity | attenuation of 2,3,4-TCNB cytotoxicity | attenuation of 2,4,5-TCNB cytotoxicity | attenuation of 2,4,6-TCNB cytotoxicity | 12 ± 1% | 12 ± 1% | 14 ± 1 ^d % | 16 ± 2 ^d % | 17 ± 2 ^c,d % |  |  |  |  |
| CCCCOCCOCCOCc1cc2c(cc1CCC)OCO2 [PiBx, Piperonyl butoxide] | reduced | reduced |  |  | 10 ± 1% | 11 ± 2% | 12 ± 1 ^c,d % | 24 ± 3 ^c % | 22 ± 1 ^c % | 13 ± 1% |  |  |  |
| COc1ccc2c(c1)c(CC(=O)O)c(C)n2C(=O)c1ccc(Cl)cc1 [Indomethacin] | reduced | reduced |  | reduced | 13 ± 1% | 16 ± 2% | 16 ± 2 ^c,d % | 21 ± 2 ^c % | 21 ± 1 ^c,d % | 16 ± 1 ^c % |  |  |  |
| CC(C)(C(=O)c1cccnc1)c1cccnc1 [Metyrapone] | reduced |  |  | reduced | 12 ± 1% | 16 ± 1 ^c % | 17 ± 1 ^c % | 28 ± 2 ^c % | 27 ± 2 ^c % | 15 ± 1% |  |  |  |
| O=[N+]([O-])c1ccc(Cl)c(Cl)c1 [3,4-DCNB, 3,4-dichloronitrobenzene] |  |  |  |  |  |  |  |  |  |  | 0.5 mM |  |  |
| CCN(CC)C(=S)S [diethyldithiocarbamate, Diethyldithiocarbamate] | at least some attenuation |  |  |  |  |  |  |  |  |  |  |  |  |
| Cn1cc[nH]c1=S [Methimazole] | reduced | reduced |  | reduced | 9 ± 1% | 14 ± 2% | 11 ± 1 ^d % | 23 ± 2 ^c % | 31 ± 2 ^c % | 17 ± 1% |  |  |  |
| O=[N+]([O-])c1cc(Cl)c(Cl)cc1Cl [2,4,5-TCNB] |  |  |  |  |  |  |  |  |  |  |  | induced cytotoxicity at 90 min (0.5 mM) and 120 min (0.5 and 1.0 mM), but not at 60 min with either concentration |  |
| CCCCCCCCN [n-Octylamine, N-Octylamine] | reduced | reduced |  |  | 16 ± 1 ^c % | 11 ± 2% | 19 ± 1 ^c,d % | 32 ± 2 ^c % | 29 ± 3 ^c % | 11 ± 1% |  |  |  |
| Nc1ccc(S(=O)(=O)Nc2ccnn2-c2ccccc2)cc1 [sulfaphenazole, Sulfaphenazole] | at least some attenuation |  |  |  |  |  |  |  |  |  |  |  |  |
| O=[N+]([O-])c1c(Cl)cc(Cl)cc1Cl [2,4,6-TCNB] |  |  |  |  |  |  |  |  |  |  |  | cytotoxicity was observed at 30 and 60 min (0.5 and 1.0 mM) but not at 15 min with either concentration | 500 µM |
| N[C@@H](CCC(=O)N[C@@H](CS)C(=O)NCC(=O)O)C(=O)O [Glutathione] | attenuation of 3,4,5-TCNB cytotoxicity | attenuation of 2,3,4-TCNB cytotoxicity | attenuation of 2,4,5-TCNB cytotoxicity | attenuation of 2,4,6-TCNB cytotoxicity | 13 ± 1% | 15 ± 1% | 14 ± 1 ^d % | 17 ± 2 ^d % | 20 ± 1 ^c,d % |  |  |  |  |
| NNC(=O)c1ccncc1 [Isoniazid] | at least some attenuation | reduced |  |  | 11 ± 1% | 10 ± 1% | 19 ± 1 ^c,d % | 34 ± 1 ^c,d % | 28 ± 2 ^c % |  |  |  |  |
| O=C(O)CC(S)C(=O)O (stereo not drawn) [Mercaptosuccinate] | reduced | reduced |  |  | 10 ± 1% | 17 ± 1 ^c % | 10 ± 1 ^d % | 24 ± 1 ^c % | 31 ± 1 ^c % | 16 ± 1% |  |  |  |
| Cc1c(C)c2c(c(C)c1O)CC[C@@](C)(CCC[C@H](C)CCC[C@H](C)CCCC(C)C)O2 [α–Tocopherol, α-Tocopherol] | attenuation of 3,4,5-TCNB cytotoxicity | attenuation of 2,3,4-TCNB cytotoxicity | attenuation of 2,4,5-TCNB cytotoxicity | not reduced | 11± 1% | 13 ± 1% | 12 ± 2 ^d % | 14 ± 3 ^d % | 25 ± 2 ^c % | 14 ± 1% |  |  |  |
| CC(=O)N[C@@H](CS)C(=O)O [NAC, N-acetyl-L-cysteine] | attenuation of 3,4,5-TCNB cytotoxicity | attenuation of 2,3,4-TCNB cytotoxicity | attenuation of 2,4,5-TCNB cytotoxicity | not reduced | 13± 1% | 15 ± 1% | 16 ± 1 ^c,d % | 17 ± 1 ^d % | 23 ± 2 ^c % | 13 ± 1% |  |  |  |
| S=P(N1CC1)(N1CC1)N1CC1 [thio-tepa, Thio-tepa] | at least some attenuation |  |  |  |  |  |  |  |  |  |  |  |  |
